The text below walks through data of patent US7662832B2, “Pyrrolo[2,3-c]pyridine derivatives and processes for the preparation thereof” (priority 2004, dated 2010).

Structures are written as SMILES. Structures can show the parent of a compound that is named as a salt.

For the assay, the target named is Proton Pump (H^+/K^+-ATPase) (Sus scrofa, UniProt P19156). The assay can be described thus: Inhibitory effects on proton pump (H^+/K^+-ATPase) activity. The class given is biochemical. As to conditions: hog gastric vesicles; K^+ stimulated H^+/K^+-ATPase activity; 30 minutes at 37° C.
Chain of Proton Pump (H^+/K^+-ATPase) (P19156 2-1034 limits assumed): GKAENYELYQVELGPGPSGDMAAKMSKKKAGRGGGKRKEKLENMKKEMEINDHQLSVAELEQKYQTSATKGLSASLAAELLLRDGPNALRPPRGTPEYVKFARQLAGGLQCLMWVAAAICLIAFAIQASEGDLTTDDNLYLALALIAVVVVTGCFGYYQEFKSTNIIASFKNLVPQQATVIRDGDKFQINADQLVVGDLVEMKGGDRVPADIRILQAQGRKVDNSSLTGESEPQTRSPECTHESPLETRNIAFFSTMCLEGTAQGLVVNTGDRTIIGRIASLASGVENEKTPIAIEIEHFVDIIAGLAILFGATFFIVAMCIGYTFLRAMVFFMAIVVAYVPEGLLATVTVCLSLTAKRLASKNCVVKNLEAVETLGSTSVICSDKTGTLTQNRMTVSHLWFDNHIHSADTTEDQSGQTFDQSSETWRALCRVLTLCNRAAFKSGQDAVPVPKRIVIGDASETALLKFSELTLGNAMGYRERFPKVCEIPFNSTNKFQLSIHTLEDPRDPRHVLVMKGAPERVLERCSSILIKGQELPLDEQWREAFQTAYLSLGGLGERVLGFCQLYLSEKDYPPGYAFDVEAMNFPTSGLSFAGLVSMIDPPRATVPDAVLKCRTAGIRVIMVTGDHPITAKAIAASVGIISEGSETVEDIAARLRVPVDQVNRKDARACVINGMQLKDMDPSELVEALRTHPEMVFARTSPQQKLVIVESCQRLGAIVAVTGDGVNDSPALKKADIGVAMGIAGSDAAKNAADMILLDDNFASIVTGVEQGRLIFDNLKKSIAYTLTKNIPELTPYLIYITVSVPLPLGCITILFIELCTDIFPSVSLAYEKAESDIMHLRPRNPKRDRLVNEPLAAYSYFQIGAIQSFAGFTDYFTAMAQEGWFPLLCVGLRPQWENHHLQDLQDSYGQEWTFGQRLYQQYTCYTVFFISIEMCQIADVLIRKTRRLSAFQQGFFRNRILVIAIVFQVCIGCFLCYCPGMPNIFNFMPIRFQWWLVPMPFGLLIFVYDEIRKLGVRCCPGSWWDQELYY
Chain of Proton Pump (H^+/K^+-ATPase) (P18434 whole entry partner): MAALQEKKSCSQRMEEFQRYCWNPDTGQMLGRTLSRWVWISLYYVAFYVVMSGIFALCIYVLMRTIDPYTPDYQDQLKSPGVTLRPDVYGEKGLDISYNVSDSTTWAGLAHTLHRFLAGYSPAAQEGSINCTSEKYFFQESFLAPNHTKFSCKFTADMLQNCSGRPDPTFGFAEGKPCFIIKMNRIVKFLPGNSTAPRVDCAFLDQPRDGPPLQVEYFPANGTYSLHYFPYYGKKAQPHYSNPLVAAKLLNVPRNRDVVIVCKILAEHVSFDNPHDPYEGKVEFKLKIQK
Turning to `Cc1c(C)n(Cc2cccc(Cl)c2)c2c(N3CCc4ccccc4C3)nc(C(=O)N3CCSCC3)cc12` [Example 790, [1-(3-chlorobenzyl)-7-(3,4-dihydro-1H-isoquinolin-2-yl)-2,3-dimethyl-1H-pyrrolo[2,3-c]pyridin-5-yl]-(thiomorpholin-1-yl)-methanone hydrochloride], the IC50 (in general, the concentration that gives 50% inhibition) turned out to be 0.128 µM. In other words, the sub-micromolar range. As to `Cc1ccc(-c2nccc3c(C)c(C)n(Cc4cccc(F)c4)c23)cc1` [Example 284, 2,3-dimethyl-1-(3-fluorobenzyl)-7-(p-tolyl)-1H-pyrrolo[2,3-c]pyridine hydrochloride], the half-inhibitory concentration (IC50) turned out to be 0.267 µM. In the case of `C=CCn1c(C)c(C)c2ccnc(COc3ccc(F)cc3)c21` [Example 2, 1-allyl-7-(4-fluorophenoxymethyl)-2,3-dimethyl-1H-pyrrolo[2,3-c]pyridine hydrochloride] it was 0.41 µM; in that of `Cc1c(C)n(Cc2ccccc2)c2c(N3CCc4ccccc4C3)nc(C(=O)n3ccnc3)cc12` [Example 839, [1-benzyl-7-(3,4-dihydro-1H-isoquinolin-2-yl)-2,3-dimethyl-1H-pyrrolo[2,3-c]pyridin-5-yl]-(imidazol-1-yl)-methanone hydrochloride], 0.257 µM. In the case of `CCC1c2ccccc2CCN1c1nccc2c(C)c(C)n(Cc3ccc(OC)cc3)c12` (stereo not drawn) [Example 583, 1-ethyl-2-[1-(4-methoxybenzyl)-2,3-dimethyl-1H-pyrrolo[2,3-c]pyridin-7-yl]-1,2,3,4-tetrahydroisoquinoline hydrochloride], it took 0.38 µM to reach half-maximal inhibition (IC50). In the case of `CCn1c(C)c(C)c2ccnc(N3CCc4ccccc4C3)c21` [Example 481, 1-ethyl-7-(1,2,3,4-tetrahydroisoquinolin-2-yl)-2,3-dimethyl-1H-pyrrolo[2,3-c]pyridine hydrochloride] it was 0.059 µM; in that of `CCC1c2ccccc2CCN1c1nccc2c(C)c(C)n(CC=C(C)C)c12` (stereo not drawn) [Example 578, 2-[2,3-dimethyl-1-(3-methylbut-2-enyl)-1H-pyrrolo[2,3-c]pyridin-7-yl]-1-ethyl-1,2,3,4-tetrahydroisoquinoline hydrochloride], 0.29 µM.

Molecule `Cc1c(C)n(Cc2cccc(F)c2)c2c(CN(C)c3ccc(F)cc3)nccc12` [Example 114, N-[1-(3-fluorobenzyl)-2,3-dimethyl-1H-pyrrolo[2,3-c]pyridin-7-ylmethyl]-N-(4-fluorophenyl)-methylamine hydrochloride] showed an IC50 of 0.027 µM. Against the preceding molecule, the IC50 is about 11-fold lower.

In the case of `COC(=O)c1cc2c(C)c(C)n(Cc3ccccc3)c2c(N2CCc3ccccc3C2)n1` [Example 743, 1-benzyl-7-(3,4-dihydro-1H-isoquinolin-2-yl)-2,3-dimethyl-1H-pyrrolo[2,3-c]pyridin-5-carboxylic acid methyl ester], the midpoint of inhibition, the IC50, lay at 0.231 µM. In the case of `C=CCn1c(C)c(C)c2ccnc(-c3ccc(C)cc3)c21` [Example 277, 1-allyl-2,3-dimethyl-7-(p-tolyl)-1H-pyrrolo[2,3-c]pyridine hydrochloride] it was 0.129 µM; in that of `C=CCn1c(C)c(C)c2ccnc(-c3ccc(C=C)cc3)c21` [Example 245, 1-allyl-2,3-dimethyl-7-(4-vinylphenyl)-1H-pyrrolo[2,3-c]pyridine hydrochloride], 0.1 µM; in that of `CCn1c(C)c(C)c2ccnc(N3CCc4ccccc4C3C3CC3)c21` (stereo not drawn) [Example 569, 1-cyclopropyl-2-(1-ethyl-2,3-dimethyl-1H-pyrrolo[2,3-c]pyridin-7-yl)-1,2,3,4-tetrahydroisoquinoline hydrochloride], 0.5 µM. Molecule `CCn1c(C)c(C)c2cc(C(=O)N3CCC(O)CC3)nc(N3CCc4ccccc4C3)c21` [Example 806, [7-(3,4-dihydro-1H-isoquinolin-2-yl)-1-ethyl-2,3-dimethyl-1H-pyrrolo[2,3-c]pyridin-5-yl]-(4-hydroxypiperidin-1-yl)-methanone hydrochloride] yielded a half-maximal inhibitory concentration (IC50) of 0.013 µM. This IC50 is about 38-fold lower than that of the molecule before. Under `COc1cccc(Cn2c(C)c(C)c3cc(C(=O)N4CCN(C)CC4)nc(N4CCc5ccccc5C4)c32)c1` [Example 783, [7-(3,4-dihydro-1H-isoquinolin-2-yl)-1-(3-methoxybenzyl)-2,3-dimethyl-1H-pyrrolo[2,3-c]pyridin-5-yl]-(4-methylpiperazin-1-yl)-methanone hydrochloride] stands 0.003 µM; under `C#CCn1c(C)c(C)c2cc(C(N)=O)nc(N3CCc4ccccc4C3)c21` [Example 749, 7-(3,4-dihydro-1H-isoquinolin-2-yl)-2,3-dimethyl-1-(prop-2-ynyl)-1H-pyrrolo[2,3-c]pyridin-5-carboxamide], 0.0015 µM; under `CCCn1c(C)c(C)c2cc(C(=O)N3CCNCC3)nc(N3CCc4ccccc4C3)c21` [Example 813, [7-(3,4-dihydro-1H-isoquinolin-2-yl)-2,3-dimethyl-1-propyl-1H-pyrrolo[2,3-c]pyridin-5-yl]-(piperazin-1-yl)-methanone hydrochloride], 0.011 µM.

Regarding `COCCn1c(C)c(C)c2cc(C(=O)n3ccnc3)nc(N3CCc4ccccc4C3)c21` [Example 842, [7-(3,4-dihydro-1H-isoquinolin-2-yl)-1-(2-methoxyethyl)-2,3-dimethyl-1H-pyrrolo[2,3-c]pyridin-5-yl]-(imidazol-1-yl)-methanone hydrochloride], the IC50 turned out to be 0.48 µM. `CCC1c2ccccc2CCN1c1nccc2c(C)c(C)n(CC)c12` (stereo not drawn) [Example 576, 1-ethyl-2-(1-ethyl-2,3-dimethyl-1H-pyrrolo[2,3-c]pyridin-7-yl)-1,2,3,4-tetrahydroisoquinoline hydrochloride] showed an IC50 of 0.22 µM. Turning to `C=CCn1c(C)c(C)c2ccnc(N3CCc4ccccc4C3)c21` [Example 493, 1-allyl-7-(1,2,3,4-tetrahydroisoquinolin-2-yl)-2,3-dimethyl-1H-pyrrolo[2,3-c]pyridine benzenesulfonate], the IC50 turned out to be 0.004 µM. Under `C=CCCn1c(C)c(C)c2cc(C#N)nc(N3CCc4ccccc4C3)c21` [Example 683, 1-(but-3-enyl)-7-(3,4-dihydro-1H-isoquinolin-2-yl)-2,3-dimethyl-1H-pyrrolo[2,3-c]pyridin-5-carbonitrile] stands 1.56 µM; under `Cc1c(C)n(Cc2ccccc2)c2c(N3CCc4ccccc4C3)nc(C(N)=O)cc12` [Example 745, 1-benzyl-7-(3,4-dihydro-1H-isoquinolin-2-yl)-2,3-dimethyl-1H-pyrrolo[2,3-c]pyridin-5-carboxamide], 0.112 µM; under `Cc1[nH]c2c(NCc3ccc(F)cc3)nc(C#N)cc2c1C` [Example 910, 7-(4-fluorobenzylamino)-2,3-dimethyl-1H-pyrrolo[2,3-c]pyridin-5-carbonitrile hydrochloride], 0.393 µM. Under `COCCn1c(C)c(C)c2ccnc(N3CCc4ccc(F)cc4C3C)c21` (stereo not drawn) [Example 546, 7-fluoro-2-[1-(2-methoxyethyl)-2,3-dimethyl-1H-pyrrolo[2,3-c]pyridin-7-yl]-1-methyl-1,2,3,4-tetrahydroisoquinoline hydrochloride] stands 0.25 µM; under `COCn1c(C)c(C)c2cc(C(=O)N3CCCCC3)nc(N3CCc4ccccc4C3)c21` [Example 800, [7-(3,4-dihydro-1H-isoquinolin-2-yl)-1-methoxymethyl-2,3-dimethyl-1H-pyrrolo[2,3-c]pyridin-5-yl]-(piperidin-1-yl)-methanone hydrochloride], 0.091 µM; under `Cc1[nH]c2c(N3CCc4ccccc4C3C)nccc2c1C` (stereo not drawn) [Example 552, 2-(2,3-dimethyl-1H-pyrrolo[2,3-c]pyridin-7-yl)-1-methyl-1,2,3,4-tetrahydroisoquinoline hydrochloride], 0.036 µM. Turning to `Cc1c(C)n(Cc2ccccc2)c2c(N3CCc4ccccc4C3)nc(CN3CCN(C)CC3)cc12` [Example 883, 2-[1-benzyl-2,3-dimethyl-5-(4-methylpiperazin-1-ylmethyl)-1H-pyrrolo[2,3-c]pyridin-7-yl]-1,2,3,4-tetrahydroisoquinoline hydrochloride], the IC50 turned out to be 0.087 µM. In the case of `Cc1c(C)n(Cc2cccc(Cl)c2)c2c(N3CCc4ccccc4C3)nc(C(N)=O)cc12` [Example 750, 1-(3-chlorobenzyl)-7-(3,4-dihydro-1H-isoquinolin-2-yl)-2,3-dimethyl-1H-pyrrolo[2,3-c]pyridin-5-carboxamide] it was 0.298 µM; in that of `Cc1c(C)n(CCc2ccc(S(C)(=O)=O)cc2)c2c(N3CCc4ccccc4C3)nccc12` [Example 512, 1-[2-(4-methylsulfonylphenyl)ethyl]-7-(1,2,3,4-tetrahydroisoquinolin-2-yl)-2,3-dimethyl-1H-pyrrolo[2,3-c]pyridine hydrochloride], 0.13 µM. Under `Cc1c(C)n(Cc2ccccc2)c2c(CN(C)c3ccc(F)cc3)nccc12` [Example 111, N-(1-benzyl-2,3-dimethyl-1H-pyrrolo[2,3-c]pyridin-7-ylmethyl)-N-(4-fluorophenyl)-methylamine hydrochloride] stands 0.025 µM; under `Cc1c(CO)c2ccnc(N3CCc4ccccc4C3)c2n1Cc1cccc(F)c1` [Example 617, [7-(3,4-dihydro-1H-isoquinolin-2-yl)-1-(3-fluorobenzyl)-2-methyl-1H-pyrrolo[2,3-c]pyridin-3-yl]-methanol hydrochloride], 0.065 µM. In turn, `Cc1c(C)n(CC2CC2)c2c(N3CCc4ccccc4C3)nc(C(N)=O)cc12` [Example 754, 1-cyclopropylmethyl-7-(3,4-dihydro-1H-isoquinolin-2-yl)-2,3-dimethyl-1H-pyrrolo[2,3-c]pyridin-5-carboxamide] registered an IC50 of 4.05 µM. As for `COc1cccc(Cn2c(C)c(C)c3ccnc(COc4ccc(Cl)cc4)c32)c1` [Example 45, 7-(4-chlorophenoxymethyl)-1-(3-methoxybenzyl)-2,3-dimethyl-1H-pyrrolo[2,3-c]pyridine hydrochloride], 0.071 µM corresponded to half-maximal inhibition (IC50). `Cc1ccc(-c2nccc3c(C)c(C)n(CC4CCC4)c23)cc1` [Example 289, 1-cyclobutylmethyl-2,3-dimethyl-7-(p-tolyl)-1H-pyrrolo[2,3-c]pyridine hydrochloride] registered a half-inhibitory concentration (IC50) of 1.34 µM.
